Experimental data published in US20240016773A1, “COMPOSITIONS AND METHODS FOR DIAGNOSIS AND TREATMENT OF CONDITIONS RELATED TO AGING” (EPITRACKER, INC., priority 2018, published 2024).

Experiments:
[1] = tested on: twelve different human primary cell systems mimicking various disease states; experiment: BioMAP Diversity PLUS panel, twelve human primary cell systems (summary by disease); type: cell-based; set-up: key: x: Significantly reduced cell-based biomarkers relevant to specific diseases and conditions
Source text: As a proof of concept, 14 compounds were selected from our compound library based on predicted efficacy in lowering inflammation in dolphins. Pure synthetic forms of these compounds were screened for cell-based activities (relevant to multiple aging-associated diseases and diseases that may impact longevity) using twelve different human primary cell systems mimicking various disease states (TABLE 4—description of primary human cell systems used to screen selected compounds in library).
(§1) The Diversity PLUS panel allows test agent characterization in an unbiased way across a broad set of systems modeling various human disease states. These systems are designed to model complex human tissue and disease biology of the vasculature, skin, lung, and inflammatory tissues. Quantitative measurements of 148 biomarker activities across this broad panel, along with comparative analysis of biological activities from known bioactive agents, were used to predict and compare the efficacy and function of each selected compound at four concentrations (740 nm and 2.2, 6.7 and 20 μM).
(§2) BioMAP systems are constructed with one or more primary cell types from healthy human donors, with stimuli (such as cytokines or growth factors) added to capture relevant signaling networks that naturally occur in human tissue or pathological conditions. Vascular biology is modeled in both a Th1 (3C system) and a Th2 (4H system) inflammatory environment, as well as in a Th1 inflammatory state specific to arterial smooth muscle cells (CASM3C system). Additional systems recapitulate aspects of the systemic immune response including monocyte-driven Th1 inflammation (LPS system) or T cell stimulation (SAg system), chronic Th1 inflammation driven by macrophage activation (lMphg system) and the T cell-dependent activation of B cells that occurs in germinal centers (BT system). The BE3C system (Th1) and the BF4T system (Th2) represent airway inflammation of the lung, while the MyoF system models myofibroblast-lung tissue remodeling. Lastly, skin biology is addressed in the KF3CT system modeling Th1 cutaneous inflammation and the HDF3CGF system modeling wound healing.
(§3) Each test agent generates a signature BioMAP profile that is created from the changes in protein biomarker readouts within individual system environments. Biomarker readouts (7-17 per system) are selected for therapeutic and biological relevance, are predictive for disease outcomes or specific drug effects and are validated using agents with known mechanism of action (MoA). Each readout is measured quantitatively by immune-based methods that detect protein (e.g., ELISA) or functional assays that measure proliferation and viability. BioMAP readouts are diverse and include cell surface receptors, cytokines, chemokines, matrix molecules and enzymes. In total, the Diversity PLUS panel contains 148 biomarker readouts that capture biological changes that occur within the physiological context of the particular BioMAP system. Specific BioMAP activities have been correlated to in vivo biology, and multiparameter BioMAP profiles have been used to distinguish compounds based on MoA and target selectivity across diverse physiological systems.
(§4) Activated BioMAP systems were incubated with each compound for 24 to 72 hours. Protein-based biomarkers from activated cell systems were measured and compared with non-treated control systems.

[2] = tested on: CD19+ B cells and peripheral blood mononuclear cells stimulated with α-IgM and TCR ligands; experiment: First cell-based system: T cell-dependent activation of B cells (allergy); set-up: species or system human
Procedure: (§5) This study examined the impact of synthetic pentadecanoic acid (C15:0) at four concentrations (740 nm and 2.2, 6.7, and 20 μM) on three primary human cell-based activity systems that were exposed to agents that mimicked allergic, thrombotic, and fibrotic disease states. In general, protein-based biomarkers in these systems were measured and compared with controls. Pentadecanoic acid was considered ‘active’ when 2 or more consecutive concentrations changed a given biomarker in the same direction relative to vehicle controls, were outside of the significance envelope of internal controls, and had at least one concentration with an effect size greater than 20% (log 10 ratio >0.1).
The first cell-based system recapitulated T cell-dependent activation of B cells that occurs in germinal centers to mimic allergy disease states. CD19^+ B cells and peripheral blood mononuclear cells were stimulated with α-IgM and TCR ligands and incubated with pentadecanoic acid for 168 hours. In addition to controls that were not treated with pentadecanoic acid, a negative, non-stimulated system was also included. Secreted IgG was measured and compared with controls.

[3] = tested on: Primary dermal fibroblasts stimulated with IL-1β, TNFα, IFNγ, EGF, bFGF, and PDGF-BB; experiment: Third cell-based system: fibrosis and cell proliferation; set-up: species or system human
Procedure: as §5
The third cell-based system recapitulated fibrosis and cell proliferation. Primary dermal fibroblasts were stimulated with IL-1β, TNFα, IFNγ, EGF, bFGF, and PDGF-BB and incubated with pentadecanoic acid for 24 hours. In addition to controls that were not treated with pentadecanoic acid, a negative, non-stimulated system was also included. Plasminogen activator inhibitor-1 (PAI-1), Collagen-I and fibroblast proliferation (at 72 hours) in this system were measured and compared with controls.

[4] = tested on: HDF3CGF system: dermal fibroblasts (IFNγ, TNFα, IL-1β, EGF, bFGF, PDGF-BB); experiment: BioMAP Diversity PLUS, HDF3CGF system; type: cell-based, human; details: HD3CGF (so in the source)
Source text: as §1, §2, §3, §4

[5] = all four concentrations (740 nm and 2.2, 6.7, and 20 μM)
[6] = 24 hours incubation, 6.7 μM and 20 μM bioactive, vs controls

CCCCCCCCCCCCCCC(=O)O [Pentadecanoic acid, pentadecanoic acid]
Significantly reduced cell-based biomarkers relevant to: Allergy ([1]; Table 6): x
Significantly reduced cell-based biomarkers relevant to: Asthma ([1]; Table 6): x
Significantly reduced cell-based biomarkers relevant to: Autoimmunity ([1]; Table 6): x
Significantly reduced cell-based biomarkers relevant to: Hematological oncology ([1]; Table 6): x
Significantly reduced cell-based biomarkers relevant to: SLE ([1]; Table 6): x
Significantly reduced cell-based biomarkers relevant to: T-cell dependent B cell proliferation ([1]; Table 6): x
Significantly reduced cell-based biomarkers relevant to: Chronic inflammation ([1]; Table 7): x
Significantly reduced cell-based biomarkers relevant to: Organ transplantation ([1]; Table 7): x
Significantly reduced cell-based biomarkers relevant to: Psoriasis ([1]; Table 7): x
Significantly reduced cell-based biomarkers relevant to: Rheumatoid arthritis ([1]; Table 7): x
Significantly reduced cell-based biomarkers relevant to: Thl type inflammation ([1]; Table 7): x
Significantly reduced cell-based biomarkers relevant to: Crohn's disease ([1]; Table 8): x
Significantly reduced cell-based biomarkers relevant to: Fibrosis ([1]; Table 8): x
Significantly reduced cell-based biomarkers relevant to: Hematological oncology ([1]; Table 8): x
Significantly reduced cell-based biomarkers relevant to: Stromal biology in tumors ([1]; Table 8): x
Secreted IgG (FIG. 2) ([2]; 168 hours incubation, 6.7 μM and 20 μM bioactive, vs controls): dose-dependent decreases
Cytotoxicity [2, 5]: non-cytotoxic
Collagen-I (FIG. 4) [3, 6]: decreases
PAI-1 (FIG. 4) [3, 6]: decreases
72-hour fibroblast proliferation (FIG. 4) ([3]; 72 hours, 6.7 μM and 20 μM bioactive, vs controls): decreases
Cytotoxicity [3, 5]: non-cytotoxic
Significant log10 reduction vs nontreated controls: 72-hour fibroblast proliferation ([4]; 6.7 μM): −0.67 log10
Significant log10 reduction vs nontreated controls: Collagen I ([4]; 6.7 μM): −0.07 log10
Significant log10 reduction vs nontreated controls: Plasminogen activation inhibitor 1 (PAI-1) ([4]; 6.7 μM): −0.08 log10
Significant log10 reduction vs nontreated controls: 72-hour fibroblast proliferation ([4]; 20.0 μM): −1.1 log10
Significant log10 reduction vs nontreated controls: Collagen I ([4]; 20.0 μM): −0.13 log10
Significant log10 reduction vs nontreated controls: Collagen III ([4]; 20.0 μM): −0.13 log10
Significant log10 reduction vs nontreated controls: Interferon gamma-induced protein 10 (IP-10)/CXCL10 ([4]; 20.0 μM): −0.14 log10
Significant log10 reduction vs nontreated controls: Interferon-inductible T cell alpha chemoattractant (I-TAC)/CXCL11 ([4]; 20.0 μM): −0.17 log10
Significant log10 reduction vs nontreated controls: Monokine induced by gamma interferon (MIG)/CXCL9 ([4]; 20.0 μM): −0.10 log10
Significant log10 reduction vs nontreated controls: Plasminogen activation inhibitor 1 (PAI-1) ([4]; 20.0 μM): −0.13 log10
Significant log10 reduction vs nontreated controls: Vascular cell adhesion molecule 1 (VCAM-1) ([4]; 20.0 μM): −0.28 log10
